{"source": "patent US20230112800A1", "about": "(priority 2021, published 2023)", "key": {"COVID-19": {"tested_on": "COVID-19", "settings": "in-vitro isolate COVID-19, Vero E6 cells; cited from earlier work"}, "SARS-CoV": {"tested_on": "SARS-CoV", "settings": "Vero cells infected by SARS-CoV (2002 pandemic); cited from earlier work"}, "[1]": {"settings": "rats, niclosamide dose of 10 mg/kg by oral gavage, n = 5"}, "[2]": {"settings": "CD-1 mice, 500 mg/kg suspended in 0.5% Methocel A4M"}}, "note": "Like-named read-outs stand apart in the source and are kept apart here."}
{"smiles": "CCN(CC)CCCC(C)Nc1ccnc2cc(Cl)ccc12", "note": "(stereo not shown) [chloroquine]", "values": [{"measurement": "IC50", "setting": "COVID-19", "result": 1130, "unit": "nM"}, {"measurement": "IC50", "setting": "SARS-CoV", "result": 4400, "unit": "nM"}]}
{"smiles": "O=C(Nc1ccc([N+](=O)[O-])cc1Cl)c1cc(Cl)ccc1O", "values": [{"measurement": "AUCInf", "setting": "[1]", "result": "188 (84) h*ng/mL"}, {"measurement": "AUC_%Extrap_obs", "setting": "[1]", "result": "8.4 (7.0) %"}, {"measurement": "AUClast", "setting": "[1]", "result": "168 (64) h*ng/mL"}, {"measurement": "AUClast/D", "setting": "[1]", "result": "16.8 (6.4) h*mg/mL"}, {"measurement": "Cmax", "setting": "[1]", "result": "48.3 (20.6) ng/mL"}, {"measurement": "MRTInf_obs", "setting": "[1]", "result": "3.56 (0.70) h"}, {"measurement": "T1/2", "setting": "[1]", "result": "1.00 (0.30) h"}, {"measurement": "Tmax", "setting": "[1]", "result": "3.60 (0.89) h"}]}
{"smiles": "O=C(Nc1ccc([N+](=O)[O-])cc1Cl)c1cc(Cl)ccc1O", "note": "[Crystalline Nic]", "values": [{"measurement": "AUC0-last", "setting": "[2]", "result": 1454.6, "unit": "ng·h/mL"}, {"measurement": "Cmax", "setting": "[2]", "result": 661.7, "unit": "ng/mL"}, {"measurement": "Tmax", "setting": "[2]", "result": 30, "unit": "min"}]}
